Test results published in article PMC4503722, “Novel Phenotypic Outcomes Identified for a Public Collection of Approved Drugs from a Publicly Accessible Panel of Assays” (PLoS ONE, 2015).
Like-named read-outs stand apart in the source and are kept apart here.

Tests used:
HT-29 = experiment: cells; type: cell-based
RKO = experiment: cells; type: cell-based
HCT116 = experiment: cells; type: cell-based
SNU-C1 = experiment: cells; type: cell-based
[1] = tested on: HCT116 cells treated with a GSK3β inhibitor; experiment: cells; type: cell-based
Colo320 = experiment: cells; type: cell-based
HeLa cells = experiment: cells; type: cell-based
DLD-1 = experiment: cells; type: cell-based
SW480 = experiment: cells; type: cell-based
[2] = tested on: endothelial tube formation in co-cultures of ECFCs and ADSCs treated with VEGF; experiment: cells; type: cell-based, human
[3] = tested on: ECFC/ADSC co-culture cell nuclei number
[4] = assay number 26, GSK3b inhibitor pretreated
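Throughout, for Hela CellCycMod PI 4N summarized IC50: value tracks stimulation of 4N DNA content.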

## O=C(c1cc(O)c(O)c(O)c1)c1ccc(O)c(O)c1O [NCGC00249050-02]
HT-29
  Basal_Viability ATP HT-29 IC50/EC50: 9.4494 µM
RKO
  Basal_Viability ATP RKO IC50/EC50: 0.1924 µM
HCT116
  Basal_Viability ATP HCT116 IC50/EC50: 16.3036 µM
SNU-C1
  Basal_Viability ATP SNU-C1 IC50/EC50: 12.767 µM
[1]
  GSK3b inh pretreated_Viability ATP HCT116 IC50/EC50: 0.06911 µM
Colo320
  Basal_Viability ATP Colo 320 IC50/EC50: 9.382 µM
HeLa cells
  Hela CellCycMod PI 2N IC50/EC50: > 10 µM
  Hela CellCycMod PI 4N IC50/EC50: > 10 µM
  Hela CellCycMod PI Cell Number IC50/EC50: > 10 µM
  Hela CellCycMod PI MI IC50/EC50: > 10 µM
  Hela CellCycMod PI S Phase IC50/EC50: > 10 µM
DLD-1
  Basal_Viability ATP DLD-1 IC50/EC50: 11.8874 µM
SW480
  Basal_Viability ATP SW480 IC50/EC50: 9.9516 µM

## O=C(NC1CCN(CCc2c[nH]c3ccccc23)CC1)c1ccccc1 [NCGC00165810-02]
HT-29; assay number 28, basal
  Basal_Viability ATP HT-29 IC50/EC50: > 20 µM
RKO; assay number 29, basal
  Basal_Viability ATP RKO IC50/EC50: > 20 µM
SNU-C1; assay number 30, basal
  Basal_Viability ATP SNU-C1 IC50/EC50: > 20 µM
[1]; [4]
  GSK3b inh pretreated_Viability ATP HCT116 IC50/EC50: > 20 µM
Colo320; assay number 27, basal
  Basal_Viability ATP Colo 320 IC50/EC50: > 20 µM
[2]
  VEGF_ADSC\ECFC Angio CD31 TubeArea IC50/EC50: > 10 µM
DLD-1; assay number 23, basal
  Basal_Viability ATP DLD-1 IC50/EC50: > 20 µM
[3]
  VEGF_ADSC\ECFC Angio Hoechst NucArea IC50/EC50: > 10 µM
SW480; assay number 24, basal
  Basal_Viability ATP SW480 IC50/EC50: > 20 µM

## CC[C@H]1CN2CCc3cc(OC)c(OC)cc3[C@@H]2C[C@@H]1C[C@H]1NCCc2cc(OC)c(OC)cc21 [NCGC00024379-16]
HT-29; assay number 28, basal
  Basal_Viability ATP HT-29 IC50/EC50: 0.01634 µM
RKO; assay number 29, basal
  Basal_Viability ATP RKO IC50/EC50: 0.00831 µM
HCT116; assay number 25, basal
  Basal_Viability ATP HCT116 IC50/EC50: 0.06147 µM
SNU-C1; assay number 30, basal
  Basal_Viability ATP SNU-C1 IC50/EC50: 0.00228 µM
[1]; [4]
  GSK3b inh pretreated_Viability ATP HCT116 IC50/EC50: 0.001 µM
Colo320; assay number 27, basal
  Basal_Viability ATP Colo 320 IC50/EC50: 0.0221 µM
HeLa cells; assay number 14, 2N
  Hela CellCycMod PI 2N IC50/EC50: > 10 µM
HeLa cells; assay number 16, 4N
  Hela CellCycMod PI 4N IC50/EC50: > 10 µM
HeLa cells; assay number 17, MI
  Hela CellCycMod PI MI IC50/EC50: 0.9477 µM
HeLa cells; assay number 18, cell number
  Hela CellCycMod PI Cell Number IC50/EC50: 0.03266 µM
DLD-1; assay number 23, basal
  Basal_Viability ATP DLD-1 IC50/EC50: 0.01158 µM
SW480; assay number 24, basal
  Basal_Viability ATP SW480 IC50/EC50: 0.001 µM

## COc1ccc(CN2CCN(C(c3ccc(F)cc3)c3ccc(F)cc3)CC2)c(OC)c1OC.Cl.Cl [NCGC00164543-02]
HT-29; assay number 28
  Basal_Viability ATP HT-29 IC50/EC50: 2.926 µM
RKO; assay number 29
  Basal_Viability ATP RKO IC50/EC50: 3.6952 µM
HCT116; assay number 25, basal
  Basal_Viability ATP HCT116 IC50/EC50: 1.7018 µM
SNU-C1; assay number 30
  Basal_Viability ATP SNU-C1 IC50/EC50: 0.4428 µM
[1]; [4]
  GSK3b inh pretreated_Viability ATP HCT116 IC50/EC50: 2.7677 µM
Colo320; assay number 27
  Basal_Viability ATP Colo 320 IC50/EC50: 2.817 µM
DLD-1; assay number 23
  Basal_Viability ATP DLD-1 IC50/EC50: 3.1331 µM
SW480; assay number 24
  Basal_Viability ATP SW480 IC50/EC50: 3.3247 µM

## Cc1ccc(C(=O)c2cc(O)c(O)c([N+](=O)[O-])c2)cc1 [NCGC00181767-03]
HT-29; assay number 28, basal
  Basal_Viability ATP HT-29 IC50/EC50: > 20 µM
RKO; assay number 29, basal
  Basal_Viability ATP RKO IC50/EC50: 1.876 µM
HCT116; assay number 25, basal
  Basal_Viability ATP HCT116 IC50/EC50: 2.292 µM
SNU-C1; assay number 30, basal
  Basal_Viability ATP SNU-C1 IC50/EC50: 4.536 µM
[1]; [4]
  GSK3b inh pretreated_Viability ATP HCT116 IC50/EC50: 0.265 µM
Colo320; assay number 27, basal
  Basal_Viability ATP Colo 320 IC50/EC50: 2.503 µM
DLD-1; assay number 23, basal
  Basal_Viability ATP DLD-1 IC50/EC50: 6.142 µM
SW480; assay number 24, basal
  Basal_Viability ATP SW480 IC50/EC50: 4.644 µM

## CCCCOC(=O)c1ccc(N)cc1 [NCGC00016353-08]
HT-29; assay number 28, basal, read-out: Basal_Viability ATP HT-29 summarized IC50
  IC50: > 20 µM
RKO; assay number 29, basal, read-out: Basal_Viability ATP RKO summarized IC50
  IC50: 0.137 µM
HCT116; assay number 25, basal, read-out: Basal_Viability ATP HCT116 summarized IC50
  IC50: > 20 µM
SNU-C1; assay number 30, basal, read-out: Basal_Viability ATP SNU-C1 summarized IC50
  IC50: > 20 µM
[1]; assay number 26, GSK3b inhibitor pretreated, read-out: GSK3b inh pretreated_Viability ATP HCT116 summarized IC50
  IC50: 5.61 µM
Colo320; assay number 27, basal, read-out: Basal_Viability ATP Colo 320 summarized IC50
  IC50: > 20 µM
HeLa cells; assay number 14, 2N, read-out: Hela CellCycMod PI 2N summarized IC50
  IC50: > 10 µM
HeLa cells; assay number 15, S phase, read-out: Hela CellCycMod PI S Phase summarized IC50
  IC50: > 10 µM
HeLa cells; assay number 16, 4N, read-out: Hela CellCycMod PI 4N summarized IC50
  IC50: > 10 µM
HeLa cells; assay number 17, MI, read-out: Hela CellCycMod PI MI summarized IC50
  IC50: > 10 µM
HeLa cells; assay number 18, cell number, read-out: Hela CellCycMod PI Cell Number summarized IC50
  IC50: > 10 µM
DLD-1; assay number 23, basal, read-out: Basal_Viability ATP DLD-1 summarized IC50
  IC50: 4.56 µM
SW480; assay number 24, basal, read-out: Basal_Viability ATP SW480 summarized IC50
  IC50: 0.586 µM

## O=Cc1ccc(O)c(O)c1O [NCGC00262933-01]
HT-29
  IC50/EC50, Basal_Viability ATP HT-29 (assay number 28): > 20 µM
RKO
  IC50/EC50, Basal_Viability ATP RKO (assay number 29): 6.232 µM
HCT116
  IC50/EC50, Basal_Viability ATP HCT116 (assay number 25): > 20 µM
SNU-C1
  IC50/EC50, Basal_Viability ATP SNU-C1 (assay number 30): > 20 µM
[1]
  IC50/EC50, GSK3b inh pretreated_Viability ATP HCT116 (assay number 26): 0.1412 µM
Colo320
  IC50/EC50, Basal_Viability ATP Colo 320 (assay number 27): 9.0837 µM
HeLa cells
  IC50/EC50, Hela CellCycMod PI 2N (assay number 14): > 10 µM
  IC50/EC50, Hela CellCycMod PI 4N (assay number 16): > 10 µM
  IC50/EC50, Hela CellCycMod PI Cell Number (assay number 18): > 10 µM
  IC50/EC50, Hela CellCycMod PI MI (assay number 17): > 10 µM
  IC50/EC50, Hela CellCycMod PI S Phase (assay number 15): > 10 µM
DLD-1
  IC50/EC50, Basal_Viability ATP DLD-1 (assay number 23): > 20 µM
SW480
  IC50/EC50, Basal_Viability ATP SW480 (assay number 24): 11.3319 µM

## CCC(COC(=O)c1cc(OC)c(OC)c(OC)c1)(c1ccccc1)N(C)C.O=C(O)/C=C\C(=O)O (centres unmarked) [NCGC00018269-05]
HT-29; assay number 28, basal
  Basal_Viability ATP HT-29 IC50/EC50: > 20 µM
RKO; assay number 29, basal
  Basal_Viability ATP RKO IC50/EC50: 0.1424 µM
HCT116; assay number 25, basal
  Basal_Viability ATP HCT116 IC50/EC50: > 20 µM
SNU-C1; assay number 30, basal
  Basal_Viability ATP SNU-C1 IC50/EC50: 2.4514 µM
[1]; [4]
  GSK3b inh pretreated_Viability ATP HCT116 IC50/EC50: 1.615 µM
Colo320; assay number 27, basal
  Basal_Viability ATP Colo 320 IC50/EC50: > 20 µM
HeLa cells; assay number 14, 2N
  Hela CellCycMod PI 2N IC50/EC50: > 10 µM
HeLa cells; assay number 15, S phase
  Hela CellCycMod PI S Phase IC50/EC50: > 10 µM
HeLa cells; assay number 16, 4N
  Hela CellCycMod PI 4N IC50/EC50: > 10 µM
HeLa cells; assay number 17, MI
  Hela CellCycMod PI MI IC50/EC50: > 10 µM
HeLa cells; assay number 18, cell number
  Hela CellCycMod PI Cell Number IC50/EC50: > 10 µM
DLD-1; assay number 23, basal
  Basal_Viability ATP DLD-1 IC50/EC50: > 20 µM
SW480; assay number 24, basal
  Basal_Viability ATP SW480 IC50/EC50: > 20 µM
